Assay results taken from patent US6914045B2, “Glycopeptide antibiotics” (Wyeth Holdings Corporation, priority 2001, dated 2005).
In brackets after ≈: the same amount, converted by molar mass.

Assays:
Test in all cases: in vitro antibacterial evaluation, MIC by broth dilution
Format in all cases: cell-based
Enterococcus sp. = conditions: broth dilution, 18 hours at 35° C.; for MIC Enterococcus faecalis (ATCC 29212): strain ATCC 29212; for MIC Enterococcus faecalis (GC 2242): strain GC 2242; for MIC Enterococcus faecium (GC 2243): strain GC 2243; for MIC Enterococcus faecalis (GC 2691): strain GC 2691; for MIC Enterococcus faecalis (GC 3059): strain GC 3059; for MIC Enterococcus faecalis (GC 4552): strain GC 4552; for MIC Enterococcus faecalis (GC 4553): strain GC 4553; for MIC Enterococcus faecalis (GC 4554): strain GC 4554; for MIC Enterococcus faecium (GC 4556): strain GC 4556; for MIC Enterococcus faecium (GC 4557): strain GC 4557; for MIC Enterococcus avium (GC 4558): strain GC 4558; for MIC Enterococcus faecalis (GC 6189): strain GC 6189
Outline: (§1)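 Following National Committee for Clinical Laboratory Standards recommendations (M7-A2), susceptibility was measured by dilution in Muller-Hinton II […]. Bacteria were seeded at 5×10^5 CFU/mL against compound concentrations from 64 down to 0.06 μg/mL.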

Escherichia coli = system: Escherichia coli
Outline: as §1

Staphylococcus sp. = conditions: broth dilution, 18 hours at 35° C.; for MIC Staphylococcus aureus (GC 1131): strain GC 1131
Outline: as §1

Streptococcus sp. = conditions: broth dilution, 18 hours at 35° C.; for MIC Streptococcus pneumoniae (ATCC 6301): strain ATCC 6301; for MIC Streptococcus pneumoniae (GC 1894): strain GC 1894; for MIC Streptococcus pyogenes (GC 4563): strain GC 4563; for MIC Streptococcus agalactiae (GC 4564): strain GC 4564; for MIC Streptococcus pneumoniae (GC 4565): strain GC 4565
Outline: as §1

MIC Enterococcus faecalis (ATCC 29212) (Enterococcus sp.; inoculum 5×10^5 CFU/mL): >64 µg/mL | MIC Enterococcus faecalis (GC 2242) (Enterococcus sp.; inoculum 5×10^5 CFU/mL): > 64 µg/mL | MIC Enterococcus faecium (GC 2243) (Enterococcus sp.; inoculum 5×10^5 CFU/mL): >64 µg/mL | MIC Enterococcus faecalis (GC 2691) (Enterococcus sp.; inoculum 5×10^5 CFU/mL): >64 µg/mL | MIC Enterococcus faecalis (GC 3059) (Enterococcus sp.; inoculum 5×10^5 CFU/mL): >64 µg/mL | MIC Enterococcus faecalis (GC 4552) (Enterococcus sp.; inoculum 5×10^5 CFU/mL): >64 µg/mL | MIC Enterococcus faecalis (GC 4553) (Enterococcus sp.; inoculum 5×10^5 CFU/mL): >64 µg/mL | MIC Enterococcus faecalis (GC 4554) (Enterococcus sp.; inoculum 5×10^5 CFU/mL): >64 µg/mL | MIC Enterococcus faecium (GC 4556) (Enterococcus sp.; inoculum 5×10^5 CFU/mL): >64 µg/mL | MIC Enterococcus faecium (GC 4557) (Enterococcus sp.; inoculum 5×10^5 CFU/mL): 32 µg/mL (≈ 21.7 µM) | MIC Enterococcus avium (GC 4558) (Enterococcus sp.; inoculum 5×10^5 CFU/mL): >64 µg/mL | MIC Enterococcus faecalis (GC 6189) (Enterococcus sp.; inoculum 5×10^5 CFU/mL): >64 µg/mL | MIC Enterococcus faecalis (ATCC 29212) (Enterococcus sp.): >64 µg/mL | MIC Enterococcus faecalis (GC 2242) (Enterococcus sp.): >64 µg/mL | MIC Enterococcus faecium (GC 2243) (Enterococcus sp.): >64 µg/mL | MIC Enterococcus faecalis (GC 2691) (Enterococcus sp.): >64 µg/mL | MIC Enterococcus faecalis (GC 3059) (Enterococcus sp.): >64 µg/mL | MIC Enterococcus faecalis (GC 4552) (Enterococcus sp.): >64 µg/mL | MIC Enterococcus faecalis (GC 4553) (Enterococcus sp.): >64 µg/mL | MIC Enterococcus faecalis (GC 4554) (Enterococcus sp.): >64 µg/mL | MIC Enterococcus faecium (GC 4556) (Enterococcus sp.): >64 µg/mL | MIC Enterococcus faecium (GC 4557) (Enterococcus sp.): 32 µg/mL (≈ 21.7 µM) | MIC Enterococcus avium (GC 4558) (Enterococcus sp.): >64 µg/mL | MIC Enterococcus faecalis (GC 6189) (Enterococcus sp.): >64 µg/mL | MIC Escherichia coli (ATCC 25922) (Escherichia coli; strain ATCC 25922, 18 hours at 35° C.): >64 µg/mL | MIC Escherichia coli (GC 4559) (Escherichia coli; strain GC 4559, 18 hours at 35° C.): >64 µg/mL | MIC Escherichia coli (GC 4560) (Escherichia coli; strain GC 4560, 18 hours at 35° C.): 8 µg/mL (≈ 5.43 µM) | MIC Staphylococcus aureus (GC 1131) (Staphylococcus sp.; inoculum 5×10^5 CFU/mL): 32 µg/mL (≈ 21.7 µM) | MIC Staphylococcus aureus (ATCC 29213) (Staphylococcus sp.; strain ATCC 29213): 32 µg/mL (≈ 21.7 µM) | MIC Staphylococcus aureus (GC 1131) (Staphylococcus sp.): 32 µg/mL (≈ 21.7 µM) | MIC Staphylococcus aureus (GC 3051) (Staphylococcus sp.; strain GC 3051): 32 µg/mL (≈ 21.7 µM) | MIC Staphylococcus aureus (GC 3053) (Staphylococcus sp.; strain GC 3053): >64 µg/mL | MIC Staphylococcus aureus (GC 4541) (Staphylococcus sp.; strain GC 4541): 32 µg/mL (≈ 21.7 µM) | MIC Staphylococcus aureus (GC 4542) (Staphylococcus sp.; strain GC 4542): 32 µg/mL (≈ 21.7 µM) | MIC Staphylococcus aureus-SMITH (GC 4543) (Staphylococcus sp.; strain GC 4543): 32 µg/mL (≈ 21.7 µM) | MIC Staphylococcus aureus (GC 4544) (Staphylococcus sp.; strain GC 4544): 32 µg/mL (≈ 21.7 µM) | MIC Staphylococcus aureus (GC 4545) (Staphylococcus sp.; strain GC 4545): 32 µg/mL (≈ 21.7 µM) | MIC Coagulase Negative Staphylococcus (GC 4547) (Staphylococcus sp.; strain GC 4547): 32 µg/mL (≈ 21.7 µM) | MIC Coagulase Negative Staphylococcus (GC 4548) (Staphylococcus sp.; strain GC 4548): 32 µg/mL (≈ 21.7 µM) | MIC Coagulase Negative Staphylococcus (GC 4549) (Staphylococcus sp.; strain GC 4549): 16 µg/mL (≈ 10.9 µM) | MIC Coagulase Negative Staphylococcus (GC 4551) (Staphylococcus sp.; strain GC 4551): >64 µg/mL | MIC Coagulase Negative Staphylococcus (GC 6257) (Staphylococcus sp.; strain GC 6257): 8 µg/mL (≈ 5.43 µM) | MIC Streptococcus pneumoniae (ATCC 6301) (Streptococcus sp.; inoculum 5×10^5 CFU/mL): 8 µg/mL (≈ 5.43 µM) | MIC Streptococcus pneumoniae (GC 1894) (Streptococcus sp.; inoculum 5×10^5 CFU/mL): 8 µg/mL (≈ 5.43 µM) | MIC Streptococcus pyogenes (GC 4563) (Streptococcus sp.; inoculum 5×10^5 CFU/mL): 16 µg/mL (≈ 10.9 µM) | MIC Streptococcus agalactiae (GC 4564) (Streptococcus sp.; inoculum 5×10^5 CFU/mL): 32 µg/mL (≈ 21.7 µM) | MIC Streptococcus pneumoniae (GC 4565) (Streptococcus sp.; inoculum 5×10^5 CFU/mL): 8 µg/mL (≈ 5.43 µM) | MIC Streptococcus pneumoniae (ATCC 6301) (Streptococcus sp.): 8 µg/mL (≈ 5.43 µM) | MIC Streptococcus pneumoniae (GC 1894) (Streptococcus sp.): 8 µg/mL (≈ 5.43 µM) | MIC Streptococcus pyogenes (GC 4563) (Streptococcus sp.): 16 µg/mL (≈ 10.9 µM) | MIC Streptococcus agalactiae (GC 4564) (Streptococcus sp.): 32 µg/mL (≈ 21.7 µM) | MIC Streptococcus pneumoniae (GC 4565) (Streptococcus sp.): 8 µg/mL (≈ 5.43 µM)
Structure (SMILES): COc1cc(C2OCC3OC(OC4C(CO)OC(Oc5ccc(CC6NC(=O)C(C(C)c7ccccc7)NC(=O)CNC(=O)C(CO)NC(=O)C(C(O)C7CNC(=N)N7C7OC(CO)C(O)C(O)C7O)NC(=O)C(C(O)C7CNC(=N)N7)NC6=O)cc5)C(O)C4O)C(O)C(O)C3O2)cc([N+](=O)[O-])c1O (centres unmarked) [Example 169]
MIC Staphylococcus haemolyticus (GC 4546) (Staphylococcus sp.; strain GC 4546): 32 µg/mL (≈ 21.7 µM)
